Test results from paper PMC9046208, “Foldamers reveal and validate therapeutic targets associated with toxic α-synuclein self-assembly” (Nature Communications, 2022).

What was measured:
[1] = molecular target: T1, αS aggregation (Homo sapiens, UniProt P37840); test: ThT aggregation kinetic assay, de novo, WT αS; format: biochemical; conditions: 100 μM analog, 100 μM αS
T1 construct: made in house; host or cells: Escherichia coli BL21(DE3), periplasm
Protocol: The aggregation kinetics of αS was monitored using ThT fluorescence assay (λex = 450 nm and λem = 485 nm). To study the aggregation kinetics of αS, the ThT dye at a final concentration of 50 μM was added to 100 μM αS solution in the aggregation buffer (1 x PBS buffer) with and without various concentrations of SK-129 in a Costar black 96–well plate (Corning Inc., Kennebunk, ME). The small molecules were dissolved in dimethyl sulfoxide (DMSO; final DMSO concentration = 0.5%, v/v). The final volume in each well was 140 μL. The plate was incubated at 37 °C with 16 min shaking (434 rpm) and 44 min without shaking in an Infinite M200PRO plate reader (Tecan, Männedorf, Switzerland) and fluorescence was recorded after every hour. We used two methods to quantify the effect of molecules on the aggregation of αS; either we have reported the t50 (time required to reach 50% fluorescence of ThT), which was extracted by fitting the ThT curve as a sigmoidal fit or the absolute ThT fluorescence intensity was reported. […] In the second method, we determined the final ThT fluorescence intensity for the aggregation of αS/Aβ42(with or without ligands) as an average of three separate experiments. […]
The aggregation kinetics of WT αS and αS variants were monitored and was carried out with a slightly modified protocol. […] The aggregation of proteins was monitored at the indicated times (See the main manuscript). […]

[2] = molecular target: T1, αS aggregation; test: SDS-PAGE analysis of soluble and insoluble αS fractions; format: biochemical; conditions: 100 µM αS, equimolar SK-129, four days
Protocol: The solution of αS (100 µM) in the absence and presence of SK-129 were prepared in the aggregation buffer (20 mM NaCl, 20 mM NaPi, pH 6.5) and kept at 37 °C and constant shaking at 1200 rpm until the aggregation of αS plateaued (four days). The solutions were separated into soluble and insoluble fractions of αS by centrifugation at 22,000 × g for 20 min. Afterwards, 2 x Laemmli protein sample loading buffer (Biorad, Hercules, CA) was added to the fractions and boiled at 95 °C for 5 min and ran on a 12% Mini-PROTEAN precast protein gel (Biorad, Hercules, CA). In addition, we also quantified SDS-PAGE gel band intensities using ImageJ software. The gel-based experiments were repeated three times (n = 3) independently to ensure the reproducibility of the data. All the uncropped gels (from Main manuscript and Supplementary Figures) have been included in the Supplementary Data File as Supplementary Fig. 29.

[3] = molecular target: Aβ42 (Homo sapiens, UniProt P05067); test: Fluorescence polarization titration, SK-129F with Aβ42; format: binding; conditions: FP, higher Kd for Aβ42
Sequence of Aβ42 (P05067 672-713 limits assumed, species assumed): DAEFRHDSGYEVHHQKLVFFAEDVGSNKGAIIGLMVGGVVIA
Protocol: All Fluorescence Polarization (FP) experiments were conducted on a Varian Cary Eclipse fluorometer (Agilent, Santa Clara, CA) equipped with a polarizer. The stock solutions of αS, 1 mM or 100 μM in 1x PBS buffer, were serially added into a solution of 10 μM SK-129F (300 μL in 1x PBS buffer) while stirring in a quartz cuvette (Fireflysci, Staten Island, NY). All FP measurements were conducted in triplicates in 20 mM Tris, 100 mM NaCl, pH 7.2 at 20 °C. The excitation and emissions wavelengths were set at 490 nm and 520 nm, respectively. Each titration was equilibrated for five min before measurements were taken for the next addition of αS solution. The addition of αS solution was continuous until no more change in the FP signal was observed. Similar conditions were used for the titration of various αS mutants and Aβ42 peptide against SK-129F. A stock solution of Aβ42 (1 mM or 100 μM in 1x PBS buffer on ice) was sequentially added to a solution of 10 μM SK-129F (300 μL in 1x PBS buffer) until no more change in the FP signal was observed. The polarization of each point was calculated using Eq. 1:1 FP=I∥−I⊥/I∥+I⊥ Where I∥ is fluorescence intensity parallel to the excitation plane and I⊥ is fluorescence intensity perpendicular to the excitation plane. […]

COC(=O)c1cc(OCC(=O)O)c2cccc(NC(=O)c3cc(OC(C)C)c4cccc(NC(=O)c5cc(OCC(=O)O)c6cccc(NC(=O)c7cc(OC(C)C)c8cccc([N+](=O)[O-])c8n7)c6n5)c4n3)c2n1 [SK-129]
antagonist activity against αS aggregation among analogs [1]: most potent antagonist | αS fraction detected by SDS-PAGE [2]: predominantly detected in the soluble fraction | Kd for Aβ42 relative to αS [3]: more than 15 fold
